# Columns and labels:
# Gamma-secretase [1] = experiment: Inhibition of gamma secretase-mediated amyloid beta42 production in HEK293 cells transfected with human APPSOW and APPLON after 5 hrs by sandwich immunoassay; type: cell-based
# Gamma-secretase [2] = experiment: Inhibition of gamma secretase-mediated amyloid beta40 production in HEK293 cells transfected with human APPSOW and APPLON after 5 hrs by sandwich immunoassay; type: cell-based
# Gamma-secretase [3] = experiment: Inhibition of gamma secretase-mediated amyloid beta40 production in HEK293 cell membranes transfected with human APPSOW and APPLON mutant after 5 hrs by sandwich immunoassay; type: cell-based
# Mus musculus [4] = experiment: Inhibition of gamma secretase in B6C3F1 mouse assessed as […] in plasma amyloid beta40 production at 10 mg/kg, po measured at 3 hrs; type: functional
# Homo sapiens = species: Homo sapiens; experiment: Selectivity ratio of inhibition of PS2 (unknown origin) to inhibition of PS1 (unknown origin)
# [5] = Ratio of drug level in brain to plasma in rat at 6 hrs; type: ADME; conditions: read-out: BPR
# Mus musculus [6] = experiment: Inhibition of gamma secretase in po dosed B6C3F1 mouse assessed as lowering of cortex amyloid beta40 production measured at 3 hrs; type: functional
# [7] = Clearance in dog at 2.5 mg/kg, iv; type: ADME, organism-based, Canis lupus familiaris; set-up: dose 2.5 mg/kg, route intravenous; conditions: in vivo
# [8] = Half life in rat at 10 mg/kg, po; type: ADME, organism-based; set-up: dose 10 mg/kg, route oral; conditions: in vivo
# Mus musculus [9] = experiment: Inhibition of gamma secretase in po dosed B6C3F1 mouse assessed as lowering of plasma amyloid beta40 production measured at 3 hrs; type: functional
# Rattus norvegicus [10] = experiment: Inhibition of gamma secretase in po dosed CD rat assessed as lowering of cortex amyloid beta40 production measured at 3 hrs; type: functional
# [11] = Cmax in monkey at 10 mg/kg, po; type: ADME, organism-based, Macaca mulatta; set-up: dose 10 mg/kg, route oral; conditions: rhesus monkey, in vivo
# Rattus norvegicus [12] = experiment: Inhibition of gamma secretase in po dosed CD rat assessed as lowering of plasma amyloid beta40 production measured at 3 hrs; type: functional
# [13] = Cmax in dog at 10 mg/kg, po; type: ADME, organism-based, Canis lupus familiaris; set-up: dose 10 mg/kg, route oral; conditions: in vivo
# hERG (KCNH2) = hERG (KCNH2) (Homo sapiens, UniProt Q12809); experiment: Inhibition of human ERG at 10 uM by voltage clamp assay
# hERG (KCNH2), sequence (Q12809 whole entry): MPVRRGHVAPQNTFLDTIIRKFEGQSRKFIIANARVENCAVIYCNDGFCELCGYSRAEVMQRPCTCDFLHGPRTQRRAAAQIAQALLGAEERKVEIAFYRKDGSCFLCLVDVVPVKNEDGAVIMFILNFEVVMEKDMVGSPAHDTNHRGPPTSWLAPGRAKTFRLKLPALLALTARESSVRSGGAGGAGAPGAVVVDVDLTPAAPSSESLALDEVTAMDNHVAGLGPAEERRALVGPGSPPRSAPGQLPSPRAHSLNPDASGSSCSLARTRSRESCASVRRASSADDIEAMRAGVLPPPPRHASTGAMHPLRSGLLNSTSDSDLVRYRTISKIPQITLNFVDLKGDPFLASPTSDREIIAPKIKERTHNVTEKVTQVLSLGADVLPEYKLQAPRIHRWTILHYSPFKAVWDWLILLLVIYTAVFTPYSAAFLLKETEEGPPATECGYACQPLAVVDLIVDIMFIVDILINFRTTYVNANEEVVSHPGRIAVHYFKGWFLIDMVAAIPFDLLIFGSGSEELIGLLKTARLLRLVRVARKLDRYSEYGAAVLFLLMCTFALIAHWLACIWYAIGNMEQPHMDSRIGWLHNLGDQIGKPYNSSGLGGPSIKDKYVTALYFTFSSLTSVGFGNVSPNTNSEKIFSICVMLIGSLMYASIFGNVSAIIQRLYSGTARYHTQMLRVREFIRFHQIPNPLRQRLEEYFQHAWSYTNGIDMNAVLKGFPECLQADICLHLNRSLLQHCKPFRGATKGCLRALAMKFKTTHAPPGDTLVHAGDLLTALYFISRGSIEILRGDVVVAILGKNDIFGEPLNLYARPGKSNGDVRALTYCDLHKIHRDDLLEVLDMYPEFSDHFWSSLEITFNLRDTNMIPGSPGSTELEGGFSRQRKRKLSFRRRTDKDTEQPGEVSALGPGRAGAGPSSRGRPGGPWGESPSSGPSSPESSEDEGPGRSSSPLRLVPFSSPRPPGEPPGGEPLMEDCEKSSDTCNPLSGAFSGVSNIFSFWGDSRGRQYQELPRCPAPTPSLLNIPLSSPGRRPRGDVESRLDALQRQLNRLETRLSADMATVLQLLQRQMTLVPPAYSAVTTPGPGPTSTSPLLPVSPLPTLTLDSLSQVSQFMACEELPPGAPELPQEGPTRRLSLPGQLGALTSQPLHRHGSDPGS
# [14] = Volume of distribution at steady state in monkey at 2.5 mg/kg, iv; type: ADME, organism-based, Macaca mulatta; set-up: dose 2.5 mg/kg, route intravenous; conditions: rhesus monkey, in vivo, read-out: Vdss
# [15] = Half life in dog at 10 mg/kg, po; type: ADME, organism-based, Canis lupus familiaris; set-up: dose 10 mg/kg, route oral; conditions: in vivo
# Rattus norvegicus [16] = experiment: Inhibition of gamma secretase in po dosed CD rat assessed as lowering of CSF amyloid beta40 production measured at 3 hrs; type: functional
# [17] = AUC (0 to infinity) in monkey at 10 mg/kg, po; type: ADME, organism-based, Macaca mulatta; set-up: time infinity, dose 10 mg/kg, route oral; conditions: rhesus monkey, plasma
# [18] = AUC (0 to infinity) in dog at 10 mg/kg, po; type: ADME, organism-based, Canis lupus familiaris; set-up: time infinity, dose 10 mg/kg, route oral; conditions: plasma
# [19] = Cmax in rat at 10 mg/kg, po; type: ADME, organism-based; set-up: dose 10 mg/kg, route oral; conditions: in vivo
# [20] = Clearance in rat at 5 mg/kg, iv; type: ADME, organism-based; set-up: dose 5 mg/kg, route intravenous; conditions: in vivo
# [21] = Oral bioavailability in dog at 10 mg/kg; type: ADME, organism-based, Canis lupus familiaris; conditions: in vivo
# [22] = AUC (0 to infinity) in rat at 10 mg/kg, po; type: ADME, organism-based; set-up: time infinity, dose 10 mg/kg, route oral; conditions: plasma
# [23] = Half life in monkey at 10 mg/kg, po; type: ADME, organism-based, Macaca mulatta; set-up: dose 10 mg/kg, route oral; conditions: rhesus monkey, in vivo
# Gamma-secretase [24] = experiment: Inhibition of gamma secretase-mediated notch cleavage in HEK293 cells expressing human notch protein with truncated extracellular EGF repeat domain by sandwich immunoassay; type: cell-based
# [25] = Oral bioavailability in monkey at 10 mg/kg; type: ADME, organism-based, Macaca mulatta; conditions: rhesus monkey, in vivo
# [26] = Oral bioavailability in rat at 10 mg/kg; type: ADME, organism-based; conditions: in vivo
# [27] = Inhibition of CYP450 (unknown origin); type: ADME, Homo sapiens
# [28] = Tmax in monkey at 10 mg/kg, po; type: ADME, organism-based, Macaca mulatta; set-up: dose 10 mg/kg, route oral; conditions: rhesus monkey, in vivo
# [29] = Volume of distribution at steady state in rat at 5 mg/kg, iv; type: ADME, organism-based; set-up: dose 5 mg/kg, route intravenous; conditions: in vivo, read-out: Vdss
# [30] = Clearance in monkey at 2.5 mg/kg, iv; type: ADME, organism-based, Macaca mulatta; set-up: dose 2.5 mg/kg, route intravenous; conditions: rhesus monkey, in vivo
# [31] = Volume of distribution at steady state in dog at 2.5 mg/kg, iv; type: ADME, organism-based, Canis lupus familiaris; set-up: dose 2.5 mg/kg, route intravenous; conditions: in vivo, read-out: Vdss
# [32] = Tmax in rat at 10 mg/kg, po; type: ADME, organism-based; set-up: dose 10 mg/kg, route oral; conditions: in vivo
# [33] = Tmax in dog at 10 mg/kg, po; type: ADME, organism-based, Canis lupus familiaris; set-up: dose 10 mg/kg, route oral; conditions: in vivo
smiles,measurement,setting,value
O=S(=O)(CC[C@@H]1OCC[C@@]2(S(=O)(=O)c3ccc(Cl)cc3)c3c(F)ccc(F)c3OC[C@@H]12)c1ncn[nH]1,IC50,Gamma-secretase [1],4.7 nM
same,IC50,Gamma-secretase [2],8.9 nM
same,IC50,Gamma-secretase [3],2.1 nM
same,inhibition in vivo at 10 mg/kg,Mus musculus [4],30%
COc1ccc(S(=O)(=O)[C@@]23CCO[C@@H](CCS(C)(=O)=O)[C@@H]2COc2c(F)ccc(F)c23)cc1,IC50,Gamma-secretase [3],360 nM
O=S(=O)(CC[C@@H]1OCC[C@@]2(S(=O)(=O)c3ccc(Cl)cc3)c3c(F)ccc(F)c3OC[C@@H]12)C1CC1,IC50,Gamma-secretase [3],2.1 nM
O=S(=O)(CCCO)CC[C@@H]1OCC[C@@]2(S(=O)(=O)c3ccc(Cl)cc3)c3c(F)ccc(F)c3OC[C@@H]12,IC50,Gamma-secretase [3],4.5 nM
CCCS(=O)(=O)CC[C@@H]1OCC[C@@]2(S(=O)(=O)c3ccc(Cl)cc3)c3c(F)ccc(F)c3OC[C@@H]12,IC50,Gamma-secretase [1],5 nM
same,IC50,Gamma-secretase [2],11 nM
same,IC50,Gamma-secretase [3],6.8 nM
CC(C)S(=O)(=O)CC[C@@H]1OCC[C@@]2(S(=O)(=O)c3ccc(Cl)cc3)c3c(F)ccc(F)c3OC[C@@H]12,IC50,Gamma-secretase [1],3 nM
same,IC50,Gamma-secretase [2],8 nM
same,IC50,Gamma-secretase [3],5.5 nM
CS(=O)(=O)CC[C@@H]1OCC[C@@]2(S(=O)(=O)c3ccc(C#N)c(C#N)c3)c3c(F)ccc(F)c3OC[C@@H]12,IC50,Gamma-secretase [1],120 nM
same,IC50,Gamma-secretase [2],400 nM
same,IC50,Gamma-secretase [3],580 nM
CS(=O)(=O)CC[C@@H]1OCC[C@@]2(S(=O)(=O)c3ccc(Cl)cc3)c3c(F)ccc(F)c3OC[C@@H]12,IC50,Gamma-secretase [1],1 nM
same,IC50,Gamma-secretase [2],4 nM
same,IC50,Gamma-secretase [3],1.3 nM
same,Selectivity ratio,Homo sapiens,19
O=S(=O)(CC[C@@H]1OCC[C@@]2(S(=O)(=O)c3ccc(Cl)cc3)c3c(F)ccc(F)c3OC[C@@H]12)c1cnn[nH]1,IC50,Gamma-secretase [1],4.7 nM
same,IC50,Gamma-secretase [2],13 nM
same,IC50,Gamma-secretase [3],4.3 nM
O=S(=O)(CCO)CC[C@@H]1OCC[C@@]2(S(=O)(=O)c3ccc(Cl)cc3)c3c(F)ccc(F)c3OC[C@@H]12,IC50,Gamma-secretase [1],0.9 nM
same,IC50,Gamma-secretase [2],1.2 nM
same,IC50,Gamma-secretase [3],1 nM
same,Kp at 6 h,[5],0.1
O=C(O)CS(=O)(=O)CC[C@@H]1OCC[C@@]2(S(=O)(=O)c3ccc(Cl)cc3)c3c(F)ccc(F)c3OC[C@@H]12,IC50,Gamma-secretase [1],22 nM
same,IC50,Gamma-secretase [2],38 nM
same,IC50,Gamma-secretase [3],2.7 nM
same,Kp at 6 h,[5],0.1
same,inhibition in vivo at 10 mg/kg,Mus musculus [4],47%
CS(=O)(=O)CC[C@@H]1OCC[C@@]2(S(=O)(=O)c3ccc(OCC(F)(F)F)cc3)c3c(F)ccc(F)c3OC[C@@H]12,IC50,Gamma-secretase [3],5100 nM
CCS(=O)(=O)CC[C@@H]1OCC[C@@]2(S(=O)(=O)c3ccc(Cl)cc3)c3c(F)ccc(F)c3OC[C@@H]12,IC50,Gamma-secretase [1],2 nM
same,IC50,Gamma-secretase [2],5 nM
same,IC50,Gamma-secretase [3],3 nM
CS(=O)(=O)CC[C@@H]1OCC[C@@]2(S(=O)(=O)c3ccc(C#N)cc3)c3c(F)ccc(F)c3OC[C@@H]12,IC50,Gamma-secretase [1],8.9 nM
same,IC50,Gamma-secretase [2],25 nM
same,IC50,Gamma-secretase [3],66 nM
CS(=O)(=O)CC[C@@H]1OCC[C@@]2(S(=O)(=O)c3cc(F)cc(F)c3)c3c(F)ccc(F)c3OC[C@@H]12,IC50,Gamma-secretase [3],250 nM
CS(=O)(=O)CC[C@@H]1OCC[C@@]2(S(=O)(=O)c3ccc(Br)cc3)c3c(F)ccc(F)c3OC[C@@H]12,IC50,Gamma-secretase [1],0.6 nM
same,IC50,Gamma-secretase [2],2.5 nM
same,IC50,Gamma-secretase [3],2.9 nM
CS(=O)(=O)CC[C@@H]1OCC[C@@]2(S(=O)(=O)c3ccc(C(F)(F)F)cc3)c3c(F)ccc(F)c3OC[C@@H]12,ED50,Mus musculus [6],8 mg/kg
same,clearance,[7],4.6 mL/min/kg
same,half-life,[8],3.6 h
same,ED50,Mus musculus [9],7.7 mg/kg
same,ED50,Rattus norvegicus [10],2.8 mg/kg
same,IC50,Gamma-secretase [1],3.5 nM
same,Cmax,[11],810 nM
same,ED50,Rattus norvegicus [12],1.9 mg/kg
same,Cmax,[13],1500 nM
same,inhibition at 10 µM,hERG (KCNH2),31%
same,Vd,[14],6.6 L/kg
same,half-life,[15],17 h
same,ED50,Rattus norvegicus [16],7.4 mg/kg
same,AUC(0-inf),[17],18 µM·h
same,AUC(0-inf),[18],46 µM·h
same,Cmax,[19],680 nM
same,clearance,[20],40 mL/min/kg
same,bioavailability,[21],100%
same,AUC(0-inf),[22],3.5 µM·h
same,half-life,[23],17 h
same,IC50,Gamma-secretase [2],11 nM
same,IC50,Gamma-secretase [24],31 nM
same,IC50,Gamma-secretase [3],15 nM
same,bioavailability,[25],70%
same,bioavailability,[26],44%
same,IC50,[27],> 10000 nM
same,Tmax,[28],5.3 h
same,Vd,[29],8.9 L/kg
same,clearance,[30],6.5 mL/min/kg
same,Vd,[31],6.1 L/kg
same,Tmax,[32],2 h
same,Tmax,[33],2.3 h
O=S(=O)(CC[C@@H]1OCC[C@@]2(S(=O)(=O)c3ccc(Cl)cc3)c3c(F)ccc(F)c3OC[C@@H]12)C(F)(F)F,IC50,Gamma-secretase [1],4.4 nM
same,IC50,Gamma-secretase [2],13 nM
same,IC50,Gamma-secretase [3],7.4 nM
O=S(=O)(CC[C@@H]1OCC[C@@]2(S(=O)(=O)c3ccc(Cl)cc3)c3c(F)ccc(F)c3OC[C@@H]12)CC(F)(F)F,IC50,Gamma-secretase [1],6.4 nM
same,IC50,Gamma-secretase [2],22 nM
same,IC50,Gamma-secretase [3],7.3 nM
O=S(=O)(CC[C@@H]1OCC[C@@]2(S(=O)(=O)c3ccc(Cl)cc3)c3c(F)ccc(F)c3OC[C@@H]12)c1ncc[nH]1,IC50,Gamma-secretase [1],1.8 nM
same,IC50,Gamma-secretase [2],1.5 nM
same,IC50,Gamma-secretase [3],1.4 nM
CS(=O)(=O)CC[C@@H]1OCC[C@@]2(S(=O)(=O)c3ccc(F)c(F)c3)c3c(F)ccc(F)c3OC[C@@H]12,IC50,Gamma-secretase [1],1.4 nM
same,IC50,Gamma-secretase [2],14 nM
same,IC50,Gamma-secretase [3],31 nM
